Data set [1] concerns Echinochloa crusgalli. The data set can be described thus: Table 17 field trial, treatment at the 2 leaf stage: weed control. The conditions noted are these: 14 days after application. It counts as in vivo. An excerpt:
(§1) Field trial: Treatment at the 2 leaf stage, evaluation 14 days after the application.

In data set [2] the test system is Oryza sativa. The experiment in a line: Table 17 field trial, treatment at the 2 leaf stage: rice damage. It counts as in vivo. Particulars: 14 days after application.
Source text: as §1

The subject of data set [3] is Echinochloa crusgalli. The data set can be described thus: Table 6 field trial, treatment at the 1-2 leaf stage: weed control. It is filed as in vivo. Particulars: 28 days after application.
Description: (§5) The examples mentioned below were carried out in the greenhouse, and in some instances, in field trials.
In data set [4] the test system is Oryza sativa. The experiment in a line: Table 6 field trial, treatment at the 1-2 leaf stage: rice damage. It counts as in vivo. Particulars: in vivo.
Description: as §5
Data set [5] deals with Echinochloa crusgalli. The data set can be described thus: Table 7 field trial, treatment at the 1-2 leaf stage: weed control. It counts as in vivo. The conditions noted are these: 28 days after application.
Description: as §5
The next data set deals with Marsilea crenata. The description is as above. It is filed as in vivo. The conditions noted are these: 28 days after application.
The test system of data set [6] is Oryza sativa. The experiment in a line: Table 7 field trial, treatment at the 1-2 leaf stage: rice damage. It counts as in vivo. The conditions noted are these: 28 days after application.
Description: as §5
The subject of data set [7] is Echinochloa crusgalli. The experiment in a line: Table 8 greenhouse trial, treatment at the 1-2 leaf stage: weed control. It counts as in vivo. Particulars: 22 days after application. An excerpt:
(§2) Seeds or rhizome pieces of mono- and dicotyledonous weed plants are placed into sandy loam soil in plastic pots, covered with soil and grown in a greenhouse under good growth conditions (temperature, atmospheric humidity, water supply). Weeds which are encountered in the cultivation of rice are cultivated in pots in which the water level is up to 2 cm over the soil surface. […] The active compound combinations according to the invention, formulated as wettable powders or emulsion concentrates, and, in parallel experiments, the correspondingly formulated individual active compounds are sprayed onto the green parts of the plants at different dosages using an amount of water of 300 to 600 l/ha (converted), and, after about 3 to 4 weeks of the test plants in the greenhouse under optimum growth conditions (temperature, atmospheric humidity, water supply), the effect of the preparations is evaluated visually in comparison to untreated controls. In the case of rice or weeds which are encountered in the cultivation of rice, the active compounds are also added directly to the water for irrigation (application analogous to the so-called granules application) or sprayed onto plants and added to the water for irrigation. The experiments were designed with several, up to five, repetitions. The herbicidal compositions according to the invention also have good herbicidal post-emergence activity against a broad spectrum of economically important weed grasses and broad-leaved weeds.

For data set [8], the system named is Oryza sativa. The data set can be described thus: Table 8 greenhouse trial, treatment at the 1-2 leaf stage: rice damage. It counts as in vivo. Particulars: 22 days after application.
Source text: as §2

The test system of another data set is Cyperus iria. The data set can be described thus: Table 24 field trial, treatment by the pre-emergence method: weed control. It is filed as in vivo. Particulars: 400 g of ai/ha, 53 days after application. The text has this: (§3) Field trial: Treatment by the pre-emergence method, evaluation 53 days after the application.
For data set [9], the system named is Oryza sativa. The experiment in a line: Table 24 field trial, treatment by the pre-emergence method: rice damage. Particulars: in vivo. It is filed as in vivo.
Source text: as §3

The test system of data set [10] is Echinochloa crusgalli. The experiment in a line: Table 11 greenhouse trial, treatment at the 1-2 leaf stage: weed control. It counts as in vivo. Particulars: 20 days after application. The protocol:
(§4) Seeds or rhizome pieces of mono- and dicotyledonous weed plants are placed into sandy loam soil in plastic pots, covered with soil and grown in a greenhouse under good growth conditions (temperature, atmospheric humidity, water supply). Weeds which are encountered in the cultivation of rice are cultivated in pots in which the water level is up to 2 cm over the soil surface. Three weeks after sowing, the test plants are treated at the three-leaf stage. The active compound combinations according to the invention, formulated as wettable powders or emulsion concentrates, and, in parallel experiments, the correspondingly formulated individual active compounds are sprayed onto the green parts of the plants at different dosages using an amount of water of 300 to 600 l/ha (converted), and, after about 3 to 4 weeks of the test plants in the greenhouse under optimum growth conditions (temperature, atmospheric humidity, water supply), the effect of the preparations is evaluated visually in comparison to untreated controls. In the case of rice or weeds which are encountered in the cultivation of rice, the active compounds are also added directly to the water for irrigation (application analogous to the so-called granules application) or sprayed onto plants and added to the water for irrigation. The experiments were designed with several, up to five, repetitions. The herbicidal compositions according to the invention also have good herbicidal post-emergence activity against a broad spectrum of economically important weed grasses and broad-leaved weeds.
Greenhouse trial: Treatment at the 1-2 leaf stage, evaluation 20 days after the application.

The subject of data set [11] is Oryza sativa. The conditions noted are these: in vivo. The protocol: as §4, with “The herbicidal compositions according to the invention also have good herbicidal post-emergence activity against a broad spectrum of economically important weed grasses and broad-leaved weeds.” left out

Molecules are shown by their SMILES. Like-named read-outs stand apart in the source and are kept apart here.

This is an account of results in patent publication US6864217B2, “Herbicidal compositions with substituted phenylsulfonylureas for controlling weeds in rice” (Hoechst Schering AgrEvo GmbH, priority 1998, dated 2005).

Description for Marsilea crenata: as §5

In the case of `CCOC(=O)C(Cl)Cc1cc(-n2nc(C)n(C(F)F)c2=O)c(F)cc1Cl` (racemic) [B38), ethyl (RS)-2-chloro-3-[2-chloro-5-(4-difluoromethyl-4,5-dihydro-3-methyl-5-oxo-1H-1,2,4-,triazol-1-yl)-4-fluorophenyl]propionate], the ECHCG % control with Echinochloa crusgalli [1] (7.5 g of ai/ha) was 50%; with Echinochloa crusgalli [1] (15 g of ai/ha) it was 52%; in the data set with Echinochloa crusgalli [1] (30 g of ai/ha), 52%. Moreover, the ORYSW % damage in the data set with Oryza sativa [2] (7.5 g of ai/ha), with Oryza sativa [2] (15 g of ai/ha) and in the data set on Oryza sativa [2] (30 g of ai/ha) was 0% in each case.

For `CCCCOCN(C(=O)CCl)c1c(CC)cccc1CC` [B1), N-(butoxymethyl)-2-chloro-N-(2,6-diethylphenyl)acetamide], the ECHCG % control in the data set with Echinochloa crusgalli [3] (300 g of ai/ha) amounted to 81%; with Echinochloa crusgalli [3] (600 g of ai/ha) it was 89%. The ORYSW % damage in the data set on Oryza sativa [4] is listed as 0%.

With `CCC(=O)Nc1ccc(Cl)c(Cl)c1` [B7), N-(3,4-dichlorophenyl)propanamide], the ECHCG % control in the data set with Echinochloa crusgalli [5] (1000 g of ai/ha) is listed as 79%; in the data set on Echinochloa crusgalli [5] (2000 g of ai/ha), 88%; in the data set on Echinochloa crusgalli [7] (1250 g of ai/ha), 0%; with Echinochloa crusgalli [7] (2500 g of ai/ha) it was 0%; in the data set on Echinochloa crusgalli [7] (5000 g of ai/ha), 10%. For the same compound, the MASCR % control with Marsilea crenata (1000 g of ai/ha) and in the data set with Marsilea crenata (2000 g of ai/ha) was 0% each time. For the same compound, the ORYSW % damage in the data set on Oryza sativa [6] (1000 g of ai/ha), in the data set with Oryza sativa [6] (2000 g of ai/ha), with Oryza sativa [8] (1250 g of ai/ha), in the data set on Oryza sativa [8] (2500 g of ai/ha) and with Oryza sativa [8] (5000 g of ai/ha) was 0% each time.

Take `CC1(C)CON(Cc2ccccc2Cl)C1=O` [B44), 2-[(2-chlorophenyl)methyl]-4,4-dimethyl-3-isoxazolidinone]: the CYPIR % control in the data set on Cyperus iria turned out to be 30%. Further, the ORYSW % damage in the data set on Oryza sativa [9] amounted to 0%.

For the compound `COc1cc(OC)nc(NC(=O)NS(=O)(=O)c2c(Cl)nc3ccccn23)n1` [B61), 2-chloro-N-[[(4,6-dimethoxy-2-pyrimidinyl)amino]-carbonyl]imidazo[1,2-a]pyridine-3-sulfonamide], the ECHCG % control with Echinochloa crusgalli [10] (8 g of ai/ha) amounted to 0%; with Echinochloa crusgalli [10] (15 g of ai/ha), 25%; in the data set on Echinochloa crusgalli [10] (30 g of ai/ha), 50%; in the data set on Echinochloa crusgalli [10] (60 g of ai/ha) it was 60%. For the same compound, in the data set on Oryza sativa [11], the ORYSW % damage was determined as 0%.
